{
  "source": "patent US12629401B2",
  "about": "“Method for preparing ginseng extract enriched with rare ginsenosides and applications thereof” (priority 2023, dated 2026)",
  "tested_on": "SD1347 nematodes",
  "test": "Mitochondrial health test: muscle fragmentation score by confocal microscopy",
  "assay_type": "in vivo, C. hidradenitis elegans nematodes",
  "settings": "100 μg/mL JadeAging, 11.4 μg/mL urolithin A",
  "text": "Skeletal sarcopenia is an age-related loss of muscle and strength. Muscle mitochondrial dysfunction is observed at the onset of skeletal sarcopenia, followed by alterations in skeletal muscle segmental architecture, ultimately leading to decreased movement. In recent years, clinical studies have shown that urolithin A improves mitochondrial health and alleviates muscle decline due to aging. In the present study, the fluorescently labeled myocyte nuclei and mitochondria of […] were used to assess whether JadeAging could ameliorate age-related dysfunction.\nMETHODS: SD1347 C. hidradenitis elegans nematodes were treated with JadeAging and fluorescently labeled with muscle nuclei and mitochondria, and muscle and mitochondrial health were assessed using confocal microscopy on days 2, 9, and 12 of the adult stage of C. hidradenitis elegans. […]\nMaximum intensity projected confocal images of adult […] animals on days 2, 9 and 12 are shown in FIG. 11, all images are from the “head” region. Healthy muscles, i.e., those of the blank group (VC group), are marked by arrows in the day 2 images and are uniformly streaked; those of the blank group (VC group) are marked by arrows in the day 12 images and show uneven fluorescence. […]",
  "data": [
    {"smiles": "O=c1oc2cc(O)ccc2c2ccc(O)cc12", "note": "[urolithin A]", "values": [
      {"measurement": "protective effect against age-related skeletal muscle reduction (mean fragmentation scores)", "setting": "FIG. 13", "value": "significant protective effect"},
      {"measurement": "mitochondrial health (change of fragmentation score distribution with age)", "setting": "days 2, 9, 12, FIG. 12", "value": "superior to that of the blank group (VC group)"}
    ]}
  ]
}
